What all share (conditions): Compound concentration 10 µM
Assay [1] addresses Beta-1 adrenergic receptor (Homo sapiens) (UniProt P08588).
Description: PDSP Primary Binding target: ADRB1 - Compounds are tested at 10 uM concentration, plate are incubated at room temperature in the dark for 90 minutes. Reaction are stopped by vacuum filtration onto 0.3% polyethyleneimine soaked filter mats using Filtermate harvester. Scintilation cocktail is then melted onto microwave-dried filters on a hot plate and the radio activity is counted in Microbia counter.
Assay [2] concerns the target Sodium-dependent noradrenaline transporter (Homo sapiens) (UniProt P23975).
Description: PDSP Primary Binding target: SLC6A2 - Compounds are tested at 10 uM concentration, plate are incubated at room temperature in the dark for 90 minutes. Reaction are stopped by vacuum filtration onto 0.3% polyethyleneimine soaked filter mats using Filtermate harvester. Scintilation cocktail is then melted onto microwave-dried filters on a hot plate and the radio activity is counted in Microbia counter.
The target in assay [3] is D(1B) dopamine receptor (Homo sapiens) (UniProt P21918).
Description: PDSP Primary Binding target: DRD5 - Compounds are tested at 10 uM concentration, plate are incubated at room temperature in the dark for 90 minutes. Reaction are stopped by vacuum filtration onto 0.3% polyethyleneimine soaked filter mats using Filtermate harvester. Scintilation cocktail is then melted onto microwave-dried filters on a hot plate and the radio activity is counted in Microbia counter.
Assay [4] has as its target 5-hydroxytryptamine receptor 1B (Homo sapiens) (UniProt P28222).
Description: PDSP Primary Binding target: HTR1B - Compounds are tested at 10 uM concentration, plate are incubated at room temperature in the dark for 90 minutes. Reaction are stopped by vacuum filtration onto 0.3% polyethyleneimine soaked filter mats using Filtermate harvester. Scintilation cocktail is then melted onto microwave-dried filters on a hot plate and the radio activity is counted in Microbia counter.
Assay [5] concerns the target D(2) dopamine receptor (Homo sapiens) (UniProt P14416).
Description: PDSP Primary Binding target: DRD2 - Compounds are tested at 10 uM concentration, plate are incubated at room temperature in the dark for 90 minutes. Reaction are stopped by vacuum filtration onto 0.3% polyethyleneimine soaked filter mats using Filtermate harvester. Scintilation cocktail is then melted onto microwave-dried filters on a hot plate and the radio activity is counted in Microbia counter.
Assay [6] has as its target Muscarinic acetylcholine receptor M3 (Homo sapiens) (UniProt P20309).
Description: PDSP Primary Binding target: CHRM3 - Compounds are tested at 10 uM concentration, plate are incubated at room temperature in the dark for 90 minutes. Reaction are stopped by vacuum filtration onto 0.3% polyethyleneimine soaked filter mats using Filtermate harvester. Scintilation cocktail is then melted onto microwave-dried filters on a hot plate and the radio activity is counted in Microbia counter.
Assay [7] concerns the target Sigma non-opioid intracellular receptor 1 (Homo sapiens) (UniProt Q99720).
Description: PDSP Primary Binding target: SIGMAR1 - Compounds are tested at 10 uM concentration, plate are incubated at room temperature in the dark for 90 minutes. Reaction are stopped by vacuum filtration onto 0.3% polyethyleneimine soaked filter mats using Filtermate harvester. Scintilation cocktail is then melted onto microwave-dried filters on a hot plate and the radio activity is counted in Microbia counter.
Assay [8] has as its target T1, Muscarinic acetylcholine receptor M1 (Homo sapiens) (UniProt P11229).
T1 sequence (whole entry): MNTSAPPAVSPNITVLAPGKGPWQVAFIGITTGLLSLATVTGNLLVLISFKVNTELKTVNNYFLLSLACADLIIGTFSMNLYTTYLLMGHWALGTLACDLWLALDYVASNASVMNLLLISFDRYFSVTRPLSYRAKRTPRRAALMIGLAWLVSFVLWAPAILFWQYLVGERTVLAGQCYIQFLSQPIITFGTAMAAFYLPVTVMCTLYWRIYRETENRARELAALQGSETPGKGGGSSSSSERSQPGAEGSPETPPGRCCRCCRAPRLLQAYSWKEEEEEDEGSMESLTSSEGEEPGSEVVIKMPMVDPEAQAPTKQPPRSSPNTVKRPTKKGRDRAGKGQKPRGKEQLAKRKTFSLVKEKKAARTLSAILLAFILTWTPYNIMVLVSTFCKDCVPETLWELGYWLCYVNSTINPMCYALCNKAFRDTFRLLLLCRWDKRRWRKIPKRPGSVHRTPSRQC
Description: PDSP Primary Binding target: CHRM1 - Compounds are tested at 10 uM concentration, plate are incubated at room temperature in the dark for 90 minutes. Reaction are stopped by vacuum filtration onto 0.3% polyethyleneimine soaked filter mats using Filtermate harvester. Scintilation cocktail is then melted onto microwave-dried filters on a hot plate and the radio activity is counted in Microbia counter.

Assay [9] concerns the target 5-hydroxytryptamine receptor 1D (Homo sapiens) (UniProt P28221).
Description: PDSP Primary Binding target: HTR1D - Compounds are tested at 10 uM concentration, plate are incubated at room temperature in the dark for 90 minutes. Reaction are stopped by vacuum filtration onto 0.3% polyethyleneimine soaked filter mats using Filtermate harvester. Scintilation cocktail is then melted onto microwave-dried filters on a hot plate and the radio activity is counted in Microbia counter.
Assay [10] deals with Sodium-dependent dopamine transporter (Homo sapiens) (UniProt Q01959).
Sodium-dependent dopamine transporter (Homo sapiens), sequence (Q01959 whole entry): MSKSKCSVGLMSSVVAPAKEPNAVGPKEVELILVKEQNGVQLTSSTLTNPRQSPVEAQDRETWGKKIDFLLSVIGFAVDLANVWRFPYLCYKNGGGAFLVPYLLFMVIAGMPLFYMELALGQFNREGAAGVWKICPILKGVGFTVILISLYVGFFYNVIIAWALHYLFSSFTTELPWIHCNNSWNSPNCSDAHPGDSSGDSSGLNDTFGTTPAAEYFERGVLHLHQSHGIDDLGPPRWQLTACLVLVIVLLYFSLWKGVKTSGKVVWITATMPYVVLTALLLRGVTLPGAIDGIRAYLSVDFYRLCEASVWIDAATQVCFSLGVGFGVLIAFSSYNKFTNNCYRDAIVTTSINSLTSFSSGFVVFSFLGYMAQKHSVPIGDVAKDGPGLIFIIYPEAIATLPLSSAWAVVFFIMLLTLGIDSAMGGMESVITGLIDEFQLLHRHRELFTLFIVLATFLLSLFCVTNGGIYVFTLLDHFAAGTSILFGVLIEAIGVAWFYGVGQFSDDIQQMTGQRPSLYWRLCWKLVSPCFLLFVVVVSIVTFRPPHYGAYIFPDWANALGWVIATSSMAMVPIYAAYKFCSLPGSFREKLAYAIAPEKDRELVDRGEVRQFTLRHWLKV
Description: PDSP Primary Binding target: SLC6A3 - Compounds are tested at 10 uM concentration, plate are incubated at room temperature in the dark for 90 minutes. Reaction are stopped by vacuum filtration onto 0.3% polyethyleneimine soaked filter mats using Filtermate harvester. Scintilation cocktail is then melted onto microwave-dried filters on a hot plate and the radio activity is counted in Microbia counter.
In assay [11] the target is Histamine H2 receptor (Homo sapiens) (UniProt P25021).
Histamine H2 receptor (Homo sapiens), sequence (P25021 whole entry): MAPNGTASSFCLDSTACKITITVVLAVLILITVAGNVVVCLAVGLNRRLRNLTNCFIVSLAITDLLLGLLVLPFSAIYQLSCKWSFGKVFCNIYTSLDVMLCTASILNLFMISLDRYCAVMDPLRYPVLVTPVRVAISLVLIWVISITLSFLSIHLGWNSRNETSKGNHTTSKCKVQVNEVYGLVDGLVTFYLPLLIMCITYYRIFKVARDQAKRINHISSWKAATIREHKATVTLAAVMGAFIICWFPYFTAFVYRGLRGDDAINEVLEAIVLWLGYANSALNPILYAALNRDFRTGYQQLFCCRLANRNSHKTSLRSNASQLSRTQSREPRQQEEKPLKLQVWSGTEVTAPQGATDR
Description: PDSP Primary Binding target: HRH2 - Compounds are tested at 10 uM concentration, plate are incubated at room temperature in the dark for 90 minutes. Reaction are stopped by vacuum filtration onto 0.3% polyethyleneimine soaked filter mats using Filtermate harvester. Scintilation cocktail is then melted onto microwave-dried filters on a hot plate and the radio activity is counted in Microbia counter.
Assay [12] addresses Histamine H3 receptor (Homo sapiens) (UniProt Q9Y5N1).
Description: PDSP Primary Binding target: HRH3 - Compounds are tested at 10 uM concentration, plate are incubated at room temperature in the dark for 90 minutes. Reaction are stopped by vacuum filtration onto 0.3% polyethyleneimine soaked filter mats using Filtermate harvester. Scintilation cocktail is then melted onto microwave-dried filters on a hot plate and the radio activity is counted in Microbia counter.
Assay [13] deals with D(1A) dopamine receptor (Homo sapiens) (UniProt P21728).
D(1A) dopamine receptor (Homo sapiens), sequence (P21728 whole entry): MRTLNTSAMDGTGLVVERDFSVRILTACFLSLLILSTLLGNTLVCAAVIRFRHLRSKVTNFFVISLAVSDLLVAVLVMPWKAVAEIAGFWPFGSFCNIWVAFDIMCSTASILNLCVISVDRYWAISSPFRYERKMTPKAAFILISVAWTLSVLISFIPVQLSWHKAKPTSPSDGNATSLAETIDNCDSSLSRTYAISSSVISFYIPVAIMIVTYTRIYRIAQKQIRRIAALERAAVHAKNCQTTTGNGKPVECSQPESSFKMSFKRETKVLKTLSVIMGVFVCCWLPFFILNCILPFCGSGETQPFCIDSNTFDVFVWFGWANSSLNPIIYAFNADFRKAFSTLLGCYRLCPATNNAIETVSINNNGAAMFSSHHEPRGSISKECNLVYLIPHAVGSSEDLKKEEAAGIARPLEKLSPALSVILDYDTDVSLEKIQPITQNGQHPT
Description: PDSP Primary Binding target: DRD1 - Compounds are tested at 10 uM concentration, plate are incubated at room temperature in the dark for 90 minutes. Reaction are stopped by vacuum filtration onto 0.3% polyethyleneimine soaked filter mats using Filtermate harvester. Scintilation cocktail is then melted onto microwave-dried filters on a hot plate and the radio activity is counted in Microbia counter.
Assay [14] addresses 5-hydroxytryptamine receptor 7 (Homo sapiens) (UniProt P34969).
Description: PDSP Primary Binding target: HTR7 - Compounds are tested at 10 uM concentration, plate are incubated at room temperature in the dark for 90 minutes. Reaction are stopped by vacuum filtration onto 0.3% polyethyleneimine soaked filter mats using Filtermate harvester. Scintilation cocktail is then melted onto microwave-dried filters on a hot plate and the radio activity is counted in Microbia counter.
The target of assay [15] is T2, Alpha-1A adrenergic receptor (Homo sapiens) (UniProt P35348).
T2 sequence (whole entry): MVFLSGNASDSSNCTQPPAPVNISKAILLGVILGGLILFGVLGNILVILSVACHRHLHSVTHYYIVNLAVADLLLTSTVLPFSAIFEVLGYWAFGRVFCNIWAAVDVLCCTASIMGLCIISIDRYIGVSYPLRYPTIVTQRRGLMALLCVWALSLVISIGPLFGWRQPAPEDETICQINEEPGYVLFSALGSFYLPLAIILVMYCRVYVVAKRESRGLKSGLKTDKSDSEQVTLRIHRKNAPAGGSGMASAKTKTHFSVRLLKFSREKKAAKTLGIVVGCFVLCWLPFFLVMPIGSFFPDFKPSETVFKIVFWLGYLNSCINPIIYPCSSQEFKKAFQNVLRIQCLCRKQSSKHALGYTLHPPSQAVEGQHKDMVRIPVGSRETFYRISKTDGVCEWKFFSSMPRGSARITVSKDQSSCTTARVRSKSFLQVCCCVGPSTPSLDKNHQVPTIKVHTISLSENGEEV
Description: PDSP Primary Binding target: ADRA1A - Compounds are tested at 10 uM concentration, plate are incubated at room temperature in the dark for 90 minutes. Reaction are stopped by vacuum filtration onto 0.3% polyethyleneimine soaked filter mats using Filtermate harvester. Scintilation cocktail is then melted onto microwave-dried filters on a hot plate and the radio activity is counted in Microbia counter.

Assay [16] concerns the target T3, Muscarinic acetylcholine receptor M5 (Homo sapiens) (UniProt P08912).
T3 sequence (whole entry): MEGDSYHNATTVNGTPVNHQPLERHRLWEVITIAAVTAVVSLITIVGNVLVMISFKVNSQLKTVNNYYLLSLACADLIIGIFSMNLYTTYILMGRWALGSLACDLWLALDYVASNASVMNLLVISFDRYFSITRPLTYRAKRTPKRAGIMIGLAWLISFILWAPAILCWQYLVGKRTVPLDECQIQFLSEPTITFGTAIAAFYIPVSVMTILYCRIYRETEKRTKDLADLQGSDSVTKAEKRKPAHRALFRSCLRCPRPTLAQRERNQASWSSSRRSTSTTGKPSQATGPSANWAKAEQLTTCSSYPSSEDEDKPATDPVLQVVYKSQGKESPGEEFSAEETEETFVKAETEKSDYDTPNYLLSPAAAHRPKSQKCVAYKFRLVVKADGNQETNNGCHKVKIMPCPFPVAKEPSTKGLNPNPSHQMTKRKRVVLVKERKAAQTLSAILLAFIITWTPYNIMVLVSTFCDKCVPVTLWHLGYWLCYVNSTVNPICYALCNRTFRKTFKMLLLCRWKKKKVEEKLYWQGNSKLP
Description: PDSP Primary Binding target: CHRM5 - Compounds are tested at 10 uM concentration, plate are incubated at room temperature in the dark for 90 minutes. Reaction are stopped by vacuum filtration onto 0.3% polyethyleneimine soaked filter mats using Filtermate harvester. Scintilation cocktail is then melted onto microwave-dried filters on a hot plate and the radio activity is counted in Microbia counter.

Assay [17] deals with T4, Muscarinic acetylcholine receptor M4 (Homo sapiens) (UniProt P08173).
T4 sequence (whole entry): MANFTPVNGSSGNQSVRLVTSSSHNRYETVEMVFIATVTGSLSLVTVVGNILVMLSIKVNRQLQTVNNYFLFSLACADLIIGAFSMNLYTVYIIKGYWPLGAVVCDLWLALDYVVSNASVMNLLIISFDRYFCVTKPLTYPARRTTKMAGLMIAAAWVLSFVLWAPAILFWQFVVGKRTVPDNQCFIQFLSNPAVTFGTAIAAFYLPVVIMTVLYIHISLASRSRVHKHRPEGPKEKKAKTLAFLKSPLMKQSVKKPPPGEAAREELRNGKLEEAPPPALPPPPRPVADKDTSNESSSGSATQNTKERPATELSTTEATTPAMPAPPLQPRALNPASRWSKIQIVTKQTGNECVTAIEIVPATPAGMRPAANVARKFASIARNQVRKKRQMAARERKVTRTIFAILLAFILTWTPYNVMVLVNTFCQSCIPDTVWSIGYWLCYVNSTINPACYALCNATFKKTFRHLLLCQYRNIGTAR
Description: PDSP Primary Binding target: CHRM4 - Compounds are tested at 10 uM concentration, plate are incubated at room temperature in the dark for 90 minutes. Reaction are stopped by vacuum filtration onto 0.3% polyethyleneimine soaked filter mats using Filtermate harvester. Scintilation cocktail is then melted onto microwave-dried filters on a hot plate and the radio activity is counted in Microbia counter.

SMILES strings stand for the structures.

By inhibition is commonly meant the relative decrease from the control value, in per cent.

Sigma non-opioid intracellular receptor 1 (Homo sapiens), sequence (Q99720 whole entry): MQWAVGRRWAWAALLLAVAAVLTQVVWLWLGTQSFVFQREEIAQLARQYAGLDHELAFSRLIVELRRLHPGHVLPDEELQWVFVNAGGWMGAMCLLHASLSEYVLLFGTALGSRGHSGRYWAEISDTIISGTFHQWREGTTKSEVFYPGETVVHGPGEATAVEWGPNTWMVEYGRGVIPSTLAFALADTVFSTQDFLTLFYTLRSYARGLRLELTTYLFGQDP
Sodium-dependent noradrenaline transporter (Homo sapiens), sequence (P23975 whole entry): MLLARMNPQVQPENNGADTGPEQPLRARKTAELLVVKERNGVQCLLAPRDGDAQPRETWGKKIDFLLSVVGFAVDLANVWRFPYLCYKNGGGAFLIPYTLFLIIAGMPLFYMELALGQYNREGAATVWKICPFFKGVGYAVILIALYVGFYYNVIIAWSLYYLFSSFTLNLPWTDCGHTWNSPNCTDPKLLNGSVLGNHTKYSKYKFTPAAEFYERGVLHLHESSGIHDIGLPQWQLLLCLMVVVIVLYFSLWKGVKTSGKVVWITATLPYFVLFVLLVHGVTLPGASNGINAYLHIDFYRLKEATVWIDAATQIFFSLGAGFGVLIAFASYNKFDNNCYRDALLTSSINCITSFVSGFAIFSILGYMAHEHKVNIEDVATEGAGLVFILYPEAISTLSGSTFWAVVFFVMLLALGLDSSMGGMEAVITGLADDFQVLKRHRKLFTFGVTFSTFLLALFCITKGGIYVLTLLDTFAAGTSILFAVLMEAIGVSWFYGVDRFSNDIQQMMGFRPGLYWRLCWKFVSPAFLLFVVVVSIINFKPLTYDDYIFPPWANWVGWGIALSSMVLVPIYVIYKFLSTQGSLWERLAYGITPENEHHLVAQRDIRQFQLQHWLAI
5-hydroxytryptamine receptor 1B (Homo sapiens), sequence (P28222 whole entry): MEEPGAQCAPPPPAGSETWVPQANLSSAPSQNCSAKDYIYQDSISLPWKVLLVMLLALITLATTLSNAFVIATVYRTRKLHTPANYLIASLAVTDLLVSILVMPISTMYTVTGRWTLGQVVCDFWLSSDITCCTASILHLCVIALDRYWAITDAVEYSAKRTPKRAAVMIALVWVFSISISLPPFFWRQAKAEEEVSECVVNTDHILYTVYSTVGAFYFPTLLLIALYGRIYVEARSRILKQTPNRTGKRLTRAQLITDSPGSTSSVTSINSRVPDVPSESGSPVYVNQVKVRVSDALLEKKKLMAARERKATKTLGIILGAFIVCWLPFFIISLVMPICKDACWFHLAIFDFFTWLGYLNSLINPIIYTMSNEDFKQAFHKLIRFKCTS
D(1B) dopamine receptor (Homo sapiens), sequence (P21918 whole entry): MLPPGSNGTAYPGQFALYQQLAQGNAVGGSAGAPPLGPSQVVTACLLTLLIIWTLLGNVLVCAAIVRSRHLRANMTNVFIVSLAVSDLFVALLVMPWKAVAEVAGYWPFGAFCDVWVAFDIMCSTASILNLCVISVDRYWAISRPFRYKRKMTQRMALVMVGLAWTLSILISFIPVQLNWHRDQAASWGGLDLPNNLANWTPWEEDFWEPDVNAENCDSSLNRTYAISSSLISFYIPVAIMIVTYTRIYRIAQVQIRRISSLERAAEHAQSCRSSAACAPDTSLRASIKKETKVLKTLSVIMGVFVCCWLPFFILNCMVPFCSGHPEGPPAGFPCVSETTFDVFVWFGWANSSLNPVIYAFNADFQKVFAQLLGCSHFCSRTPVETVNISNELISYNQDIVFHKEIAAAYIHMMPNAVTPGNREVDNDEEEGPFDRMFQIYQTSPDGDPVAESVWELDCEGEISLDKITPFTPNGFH
5-hydroxytryptamine receptor 1D (Homo sapiens), sequence (P28221 whole entry): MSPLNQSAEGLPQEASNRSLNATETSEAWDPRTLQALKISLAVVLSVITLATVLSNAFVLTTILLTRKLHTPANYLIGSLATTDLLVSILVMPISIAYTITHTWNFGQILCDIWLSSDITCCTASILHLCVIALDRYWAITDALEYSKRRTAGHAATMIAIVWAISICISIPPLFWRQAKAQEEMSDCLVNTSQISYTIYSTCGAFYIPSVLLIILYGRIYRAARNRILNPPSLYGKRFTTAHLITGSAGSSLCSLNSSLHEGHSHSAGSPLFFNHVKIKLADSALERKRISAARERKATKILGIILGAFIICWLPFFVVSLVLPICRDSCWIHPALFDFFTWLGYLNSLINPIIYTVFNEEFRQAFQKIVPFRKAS
Beta-1 adrenergic receptor (Homo sapiens), sequence (P08588 whole entry, looked up): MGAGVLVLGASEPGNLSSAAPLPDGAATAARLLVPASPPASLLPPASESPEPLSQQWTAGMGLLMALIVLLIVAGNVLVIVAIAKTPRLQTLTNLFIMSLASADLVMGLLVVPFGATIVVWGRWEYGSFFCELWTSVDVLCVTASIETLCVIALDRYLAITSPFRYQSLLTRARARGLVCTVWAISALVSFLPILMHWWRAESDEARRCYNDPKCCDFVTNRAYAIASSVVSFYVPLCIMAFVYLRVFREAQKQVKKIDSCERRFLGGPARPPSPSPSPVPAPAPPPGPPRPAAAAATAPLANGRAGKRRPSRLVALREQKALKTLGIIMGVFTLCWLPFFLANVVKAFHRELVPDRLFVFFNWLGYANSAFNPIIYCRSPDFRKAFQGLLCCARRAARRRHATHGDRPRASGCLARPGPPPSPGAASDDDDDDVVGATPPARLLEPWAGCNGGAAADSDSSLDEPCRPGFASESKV
Histamine H3 receptor (Homo sapiens), sequence (Q9Y5N1 whole entry): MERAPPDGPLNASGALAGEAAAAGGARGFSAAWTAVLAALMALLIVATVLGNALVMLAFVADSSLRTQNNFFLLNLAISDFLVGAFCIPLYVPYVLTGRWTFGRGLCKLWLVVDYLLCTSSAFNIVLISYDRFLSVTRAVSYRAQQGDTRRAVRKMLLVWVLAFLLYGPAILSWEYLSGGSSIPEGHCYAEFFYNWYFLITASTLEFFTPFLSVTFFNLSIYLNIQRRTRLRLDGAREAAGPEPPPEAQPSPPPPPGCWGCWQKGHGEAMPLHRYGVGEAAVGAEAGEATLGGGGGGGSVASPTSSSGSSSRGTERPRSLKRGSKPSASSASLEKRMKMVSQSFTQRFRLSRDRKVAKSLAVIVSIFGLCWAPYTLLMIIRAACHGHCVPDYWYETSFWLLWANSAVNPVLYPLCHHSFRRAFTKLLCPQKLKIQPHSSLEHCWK
D(2) dopamine receptor (Homo sapiens), sequence (P14416 whole entry): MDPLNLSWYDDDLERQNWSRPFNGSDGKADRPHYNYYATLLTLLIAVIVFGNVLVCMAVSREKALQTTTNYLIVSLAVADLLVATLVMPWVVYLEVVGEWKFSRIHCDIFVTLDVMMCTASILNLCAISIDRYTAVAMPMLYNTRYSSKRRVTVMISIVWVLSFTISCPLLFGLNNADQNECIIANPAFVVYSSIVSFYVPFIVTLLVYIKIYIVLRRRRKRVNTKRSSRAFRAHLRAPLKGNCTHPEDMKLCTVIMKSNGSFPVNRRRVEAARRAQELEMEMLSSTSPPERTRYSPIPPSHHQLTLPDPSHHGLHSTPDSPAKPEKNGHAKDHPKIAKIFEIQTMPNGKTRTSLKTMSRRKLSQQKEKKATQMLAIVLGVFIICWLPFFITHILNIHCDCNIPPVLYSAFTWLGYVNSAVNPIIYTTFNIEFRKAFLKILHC

Take `N#Cc1c(O)nc(SCc2cccc(F)c2F)nc1C1CC1`: the inhibition in assay [1] was 28.6%; in assay [2], -1.64%; in assay [3] it was 28.4%; in assay [4], -9.63%; in [5] it was -6.52%; in [6], 5.27%. Further, the inhibition in [7] is 18.2%; in assay [8], -6.12%; in assay [9] it was 38.9%; in [10] it was 45.1%; in assay [11], 6.35%; in [12], 18.8%. For the same molecule, the inhibition in assay [13] was -8.29%.

Regarding `NCCc1cn(S(=O)(=O)c2c(Cl)nc3sccn23)c2ccccc12`, the inhibition was 44.4% in [1]; 84.1% in [2]; 38.9% in assay [3]; 82.5% in [4]; 42.1% in assay [5]; 25.2% in [6]. Besides, the inhibition was 78.7% in [7]; 66.9% in assay [14]; 38.9% in assay [8]; 81.9% in assay [9]; 67.9% in [10]; 57.5% in assay [15]. For the same molecule, the inhibition in assay [16] was 0.78%; in assay [17] it was 16.1%; in [12], 55.7%; in assay [13], 41.2%.

As to `COc1ccc(CNC(=O)c2cc(-c3cncc(Cl)c3)cnc2-c2ccccn2)nc1OC`, the inhibition was 30.3% in assay [1]; 39% in assay [2]; 1.18% in [3]; -4.47% in [4]; 17.4% in assay [5]; -0.37% in [6]. Besides, the inhibition was -2.32% in assay [7]; -7.31% in [8]; -5.62% in assay [9]; 36.3% in [10]; 0.56% in assay [15]; 0.79% in assay [16]. Further, the inhibition was -5.76% in assay [11] and -2.53% in assay [12].

Turning to `COc1ccc(NC(=O)c2ccc(-c3ccc(-c4noc(C)n4)cc3C)cc2)cc1OCCN(C)C`, the inhibition was 4.01% in assay [1]; 94% in assay [2]; 48.4% in assay [3]; 101% in assay [4]; 34.6% in assay [5]; 37.2% in assay [6]. Besides, the inhibition is 70% in assay [7]; 78.8% in assay [14]; 50.7% in assay [8]; 101% in assay [9]; 86.1% in assay [10]; 17.3% in assay [15]. The inhibition in assay [16] was 37.9%; in assay [17], 7.57%; in [12], 65.4%; in assay [13] it was 47.9%.

As to `CN1CCC(C(=O)c2cccc(NC(=O)c3c(F)cc(F)cc3F)n2)CC1`, the inhibition was -2.95% in [1]; 23.5% in [2]; 73.7% in [3]; 43.4% in assay [4]; 26.2% in assay [5]; 43.5% in [6]. The inhibition in [7] is 81.6%; in assay [14], 52.8%; in assay [8] it was 43.1%; in assay [9] it was 80.7%; in assay [10], 42.1%; in assay [15], 17.6%. Besides, the inhibition in assay [16] is 64%; in [17], 27%; in [12], 3.79%; in assay [13], 15.1%.

In the case of `Cc1cc(NC(=O)NCCN2CCC(O)(Cc3ccccc3)CC2)c2ccccc2n1`, the inhibition in assay [1] is 25.5%; in [2], 69.5%; in assay [3], 41.9%; in assay [4], 11.5%; in [5], 65.3%; in assay [6], 24.4%. In addition, the inhibition in assay [7] is 56.9%; in assay [14], 32%; in assay [8], 13.7%; in [9], 91.7%; in [10], 43.9%; in [15], 23.9%. Besides, the inhibition is 44% in assay [16], 17.1% in assay [17], 31% in [12] and 10.7% in assay [13].

Turning to `c1nc(CC2CCNCC2)c[nH]1`, the inhibition was -4.6% in assay [1]; 15.7% in assay [2]; 5.35% in [3]; 17.7% in [4]; 27.8% in assay [5]; 6.47% in assay [6]. In addition, the inhibition was 38.7% in assay [7]; 11.9% in [14]; 6.59% in assay [8]; 9.58% in [9]; 14.6% in assay [10]; -4.11% in assay [15]. For the same molecule, the inhibition is 1.07% in assay [16], -0.76% in assay [17], 95.9% in [12] and 24.2% in [13].

In the case of `Cc1nc(-c2ccc(C(F)(F)F)cc2)sc1COc1ccc([C@H](CC(=O)O)c2ccon2)cc1`, the inhibition in assay [1] was 24.6%; in assay [2], 14.3%; in assay [3], -0.99%; in assay [5], 16.7%; in assay [6] it was 2.18%; in assay [7], 37.7%. Besides, the inhibition in [14] is 4.07%; in [9] it was 8.11%; in assay [10], 51.1%; in assay [11] it was 15.9%; in assay [17], 4.4%; in assay [12] it was 9.74%.

In the case of `O=C(O)COc1cccc(CN(Cc2ccc(-n3cccn3)cc2)S(=O)(=O)c2cccnc2)c1`, the inhibition in assay [3] is 2.14%; in [4] it was 12.1%; in [5], 7.85%; in [6], 7.64%; in assay [7] it was 5.04%; in assay [8], 3.45%. Moreover, the inhibition in assay [15] is -1.12%; in [16] it was -5.22%; in [11] it was 3.71%; in assay [17], -2.13%; in [12] it was 6.23%.

Source of the values: ChEMBL document CHEMBL5442219.
